# Columns and labels:
# [1] = target: rat TAAR1 (Rattus norvegicus (Rat), UniProt Q923Y9); experiment: Radioligand binding assay on rat TAAR1; details: read-out: Ki(μM) rat; rat TAAR1, HEK-293 membranes, second value of cell pair mouse/rat
# Experimental: (§1) Membrane Preparation and Radioligand Binding.
# HEK-293 cells stably expressing rat TAAR1 were maintained at 37° C. and 5% CO2 in DMEM high glucose medium, containing fetal calf serum (10%, heat inactivated for 30 min at 56° C.), penicillin/streptomycin (1%), and 375 μg/ml geneticin (Gibco). Cells were released from culture flasks using trypsin/EDTA, harvested, washed twice with ice-cold PBS (without Ca^2+ and Mg^2+), pelleted at 1,000 rpm for 5 min at 4° C., frozen and stored at −80° C. Frozen pellets were suspended in 20 ml HEPES-NaOH (20 mM, pH 7.4) containing 10 mM EDTA and homogenized with a Polytron (PT 6000, Kinematica) at 14,000 rpm for 20 s. The homogenate was centrifuged at 48,000×g for 30 min at 4° C. Subsequently, the supernatant was removed and discarded, and the pellet resuspended in 20 ml HEPES-NaOH (20 mM, pH 7.4) containing 0.1 mM EDTA using the Polytron (20 s at 14,000 rpm). This procedure was repeated and the final pellet resuspended in HEPES-NaOH containing 0.1 mM EDTA and homogenized using the Polytron. Typically, aliquots of 2 ml membrane portions were stored at −80° C. With each new membrane batch the dissociation constant (Kd) was determined via a saturation curve. […] Nonspecific binding was defined as the amount of [H]—(S)-4-[(ethyl-phenyl-amino)-methyl]-4,5-dihydro-oxazol-2-ylamine bound in the presence of 10 M unlabeled ligand. All compounds were tested at a broad range of concentrations (10 pM to 10 μM) in duplicates. […] The 96 deep well plates were incubated for 1 hr at 4° C. Incubations were terminated by rapid filtration through Unifilter-96 plates (Packard Instrument Company) and glass filters GF/C (Perkin Elmer) presoaked for 1 hr in polyethylenimine (0.3%) and washed 3 times with 1 ml of cold binding buffer. After addition of 45 μl of Microscint 40 (PerkinElmer) the Unifilter-96 plate was sealed and after 1 hr the radioactivity counted using a TopCount Microplate Scintillation Counter (Packard Instrument Company).
# [2] = target: mouse TAAR1 (Mus musculus (Mouse), UniProt Q923Y8); experiment: Radioligand binding assay on mouse TAAR1
# mouse TAAR1, sequence (Q923Y8 whole entry): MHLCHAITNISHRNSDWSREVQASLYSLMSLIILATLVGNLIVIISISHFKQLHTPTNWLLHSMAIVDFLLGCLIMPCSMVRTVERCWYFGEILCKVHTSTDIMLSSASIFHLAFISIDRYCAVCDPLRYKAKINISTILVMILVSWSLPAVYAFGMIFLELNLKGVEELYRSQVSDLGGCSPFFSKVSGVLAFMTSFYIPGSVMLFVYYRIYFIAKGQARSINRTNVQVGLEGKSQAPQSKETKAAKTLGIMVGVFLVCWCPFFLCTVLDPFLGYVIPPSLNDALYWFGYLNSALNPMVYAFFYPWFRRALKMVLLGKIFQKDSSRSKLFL
# Experimental: as §1
# HEK-293 cells stably expressing mouse TAAR1 were maintained at 37° C. and 5% CO2 in DMEM high glucose medium, containing fetal calf serum (10%, heat inactivated for 30 min at 56° C.), penicillin/streptomycin (1%), and 375 μg/ml geneticin (Gibco). Cells were released from culture flasks using trypsin/EDTA, harvested, washed twice with ice-cold PBS (without Ca^2+ and Mg^2+), pelleted at 1,000 rpm for 5 min at 4° C., frozen and stored at −80° C. Frozen pellets were suspended in 20 ml HEPES-NaOH (20 mM, pH 7.4) containing 10 mM EDTA and homogenized with a Polytron (PT 6000, Kinematica) at 14,000 rpm for 20 s. The homogenate was centrifuged at 48,000×g for 30 min at 4° C. Subsequently, the supernatant was removed and discarded, and the pellet resuspended in 20 ml HEPES-NaOH (20 mM, pH 7.4) containing 0.1 mM EDTA using the Polytron (20 s at 14,000 rpm). This procedure was repeated and the final pellet resuspended in HEPES-NaOH containing 0.1 mM EDTA and homogenized using the Polytron. Typically, aliquots of 2 ml membrane portions were stored at −80° C. With each new membrane batch the dissociation constant (Kd) was determined via a saturation curve. […] Nonspecific binding was defined as the amount of ^3[H]—(S)-4-[(ethyl-phenyl-amino)-methyl]-4,5-dihydro-oxazol-2-ylamine bound in the presence of 10 M unlabeled ligand. All compounds were tested at a broad range of concentrations (10 pM to 10 μM) in duplicates. […] The 96 deep well plates were incubated for 1 hr at 4° C. Incubations were terminated by rapid filtration through Unifilter-96 plates (Packard Instrument Company) and glass filters GF/C (Perkin Elmer) presoaked for 1 hr in polyethylenimine (0.3%) and washed 3 times with 1 ml of cold binding buffer. After addition of 45 μl of Microscint 40 (PerkinElmer) the Unifilter-96 plate was sealed and after 1 hr the radioactivity counted using a TopCount Microplate Scintillation Counter (Packard Instrument Company).
# rat TAAR1, sequence (Q923Y9 whole entry): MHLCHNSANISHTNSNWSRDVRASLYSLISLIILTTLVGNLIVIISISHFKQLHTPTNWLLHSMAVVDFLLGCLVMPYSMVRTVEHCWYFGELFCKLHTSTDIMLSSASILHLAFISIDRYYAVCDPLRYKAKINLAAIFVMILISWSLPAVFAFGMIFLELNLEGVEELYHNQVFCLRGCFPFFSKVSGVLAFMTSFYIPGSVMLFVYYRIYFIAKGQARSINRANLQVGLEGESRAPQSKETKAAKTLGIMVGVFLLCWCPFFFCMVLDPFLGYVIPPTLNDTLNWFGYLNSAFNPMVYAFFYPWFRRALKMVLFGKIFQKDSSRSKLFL
structure (smiles),measurement,setting,value
"Cc1cc(C(=O)Nc2cc(F)c(C=C3CNC3)c(F)c2)nc(C(F)(F)F)n1 [Example 82, N-(4-(azetidin-3-ylidenemethyl)-3,5-difluorophenyl)-6-methyl-2-(trifluoromethyl)pyrimidine-4-carboxamide]",Ki,[1],0.0055 µM
same,Ki,[2],27.8 nM
"CCc1n[nH]c(C(=O)Nc2cc(F)c(C=C3CNC3)c(F)c2)c1C [Example 83, N-(4-(azetidin-3-ylidenemethyl)-3,5-difluorophenyl)-3-ethyl-4-methyl-1H-pyrazole-5-carboxamide]",Ki,[1],0.0009 µM
same,Ki,[2],16.7 nM
"O=C(Nc1cc(F)c(C=C2CNC2)c(F)c1)c1ccc(Cl)nc1 [Example 84, N-(4-(azetidin-3-ylidenemethyl)-3,5-difluorophenyl)-6-chloronicotinamide]",Ki,[1],0.0014 µM
same,Ki,[2],3.3 nM
"Cc1cc(C(=O)Nc2ccc(C=C3CNC3)c(F)c2)nc(C(F)(F)F)n1 [Example 85, N-(4-(azetidin-3-ylidenemethyl)-3-fluorophenyl)-6-methyl-2-(trifluoromethyl)pyrimidine-4-carboxamide]",Ki,[1],0.0134 µM
same,Ki,[2],50.9 nM
"O=C(Nc1ccc(C=C2CNC2)c(F)c1)c1ccc(Cl)nc1 [Example 86, N-(4-(azetidin-3-ylidenemethyl)-3-fluorophenyl)-6-chloronicotinamide]",Ki,[1],0.0038 µM
same,Ki,[2],1.8 nM
"CCc1cc(C(=O)Nc2cc(F)c(C=C3CNC3)c(F)c2)nc(C(F)(F)F)n1 [Example 87, N-(4-(azetidin-3-ylidenemethyl)-3,5-difluorophenyl)-6-ethyl-2-(trifluoromethyl)pyrimidine-4-carboxamide]",Ki,[1],0.0024 µM
same,Ki,[2],12.2 nM
"CCc1n[nH]c(C(=O)Nc2ccc(C=C3CNC3)c(F)c2)c1C [Example 88, N-(4-(azetidin-3-ylidenemethyl)-3-fluorophenyl)-3-ethyl-4-methyl-1H-pyrazole-5-carboxamide]",Ki,[1],0.005 µM
same,Ki,[2],17.4 nM
"c1ccc(C[C@H]2CCN2)cc1 [Example 89, (S)-2-benzylazetidine]",Ki,[1],0.0822 µM
same,Ki,[2],1520 nM
"F[C@H]1CN[C@H]1Cc1ccccc1 [Example 90, (2S,3S)-2-benzyl-3-fluoroazetidine]",Ki,[1],0.274 µM
same,Ki,[2],4380 nM
"F[C@@H]1CN[C@H]1Cc1ccccc1 [Example 91, (2S,3R)-2-benzyl-3-fluoroazetidine]",Ki,[1],0.149 µM
same,Ki,[2],1070 nM
"F[C@@H]1CN[C@@H]1Cc1ccccc1 [Example 92, (2R,3R)-2-benzyl-3-fluoroazetidine]",Ki,[1],0.607 µM
same,Ki,[2],244 nM
"F[C@H]1CN[C@@H]1Cc1ccccc1 [Example 93, (2R,3S)-2-benzyl-3-fluoroazetidine]",Ki,[1],2.09 µM
same,Ki,[2],1280 nM
"CO[C@H]1CN[C@H]1Cc1ccccc1 [Example 94, (2S,3S)-2-benzyl-3-methoxyazetidine]",Ki,[1],0.767 µM
same,Ki,[2],4050 nM
"CO[C@@H]1CN[C@H]1Cc1ccccc1 [Example 95, (2S,3R)-2-benzyl-3-methoxyazetidine]",Ki,[1],0.648 µM
same,Ki,[2],2770 nM
"CO[C@@H]1CN[C@@H]1Cc1ccccc1 [Example 100, (2R,3R)-2-benzyl-3-methoxyazetidine]",Ki,[1],0.151 µM
same,Ki,[2],317 nM
"CO[C@H]1CN[C@@H]1Cc1ccccc1 [Example 101, (2R,3S)-2-benzyl-3-methoxyazetidine]",Ki,[1],2.04 µM
same,Ki,[2],2610 nM
"CCc1n[nH]c(C(=O)Nc2ccc(C[C@@H]3NC[C@@H]3F)cc2)c1C [Example 102, 3-ethyl-N-(4-(((2S,3S)-3-fluoroazetidin-2-yl)methyl)phenyl)-4-methyl-1H-pyrazole-5-carboxamide]",Ki,[1],0.0875 µM
same,Ki,[2],14.8 nM
"CCc1n[nH]c(C(=O)Nc2ccc(C[C@H]3NC[C@H]3F)cc2)c1C [Example 103, 3-ethyl-N-(4-(((2R,3R)-3-fluoroazetidin-2-yl)methyl)phenyl)-4-methyl-1H-pyrazole-5-carboxamide]",Ki,[1],1.27 µM
same,Ki,[2],45.6 nM
"O=C(Nc1ccc(C[C@@H]2NC[C@@H]2F)cc1)c1ccnc(C(F)(F)F)c1 [Example 104, N-(4-(((2S,3S)-3-fluoroazetidin-2-yl)methyl)phenyl)-2-(trifluoromethyl)isonicotinamide]",Ki,[1],0.0231 µM
same,Ki,[2],10.8 nM
"O=C(Nc1ccc(CC2(F)CNC2)cc1)Nc1ccc(C(F)(F)F)cc1 [Example 105, 1-[4-[(3-fluoroazetidin-3-yl)methyl]phenyl]-3-[4-(trifluoromethyl)phenyl]urea]",Ki,[1],0.0016 µM
same,Ki,[2],1.9 nM
"COc1ccc(NC(=O)Nc2ccc(CC3(F)CNC3)cc2)cc1 [Example 106, 1-[4-[(3-fluoroazetidin-3-yl)methyl]phenyl]-3-(4-methoxyphenyl)urea]",Ki,[1],0.0239 µM
same,Ki,[2],1.9 nM
"O=C(Nc1ccc(CC2(F)CNC2)cc1)Nc1cccc(Cl)c1 [Example 107, 1-(3-chlorophenyl)-3-[4-[(3-fluoroazetidin-3-yl)methyl]phenyl]urea]",Ki,[1],0.0026 µM
same,Ki,[2],2.5 nM
"COc1ccc(NC(=O)Nc2ccc(OC3CNC3)cc2)cc1 [Example 108, 1-[4-(azetidin-3-yloxy)phenyl]-3-(4-methoxyphenyl)urea]",Ki,[1],0.0269 µM
same,Ki,[2],108 nM
"O=C(Nc1ccc(OC2CNC2)cc1)Nc1cccc(Cl)c1 [Example 109, 1-[4-(azetidin-3-yloxy)phenyl]-3-(3-chlorophenyl)urea]",Ki,[1],0.003 µM
same,Ki,[2],4.6 nM
"O=C(Nc1ccc(SC2CNC2)cc1)Nc1ccc(C(F)(F)F)cc1 [Example 110, 1-[4-(azetidin-3-ylsulfanyl)phenyl]-3-[4-(trifluoromethyl)phenyl]urea]",Ki,[1],0.0081 µM
same,Ki,[2],13.1 nM
"COc1ccc(NC(=O)Nc2ccc(SC3CNC3)cc2)cc1 [Example 111, 1-[4-(azetidin-3-ylsulfanyl)phenyl]-3-(4-methoxyphenyl)urea]",Ki,[1],0.139 µM
same,Ki,[2],161 nM
"O=C(Nc1ccc(SC2CNC2)cc1)Nc1cccc(Cl)c1 [Example 112, 1-[4-(azetidin-3-ylsulfanyl)phenyl]-3-(3-chlorophenyl)urea]",Ki,[1],0.0111 µM
same,Ki,[2],11.1 nM
"O=C(Nc1ccc(CC2CNC2)cc1)Nc1ccc(C(F)(F)F)cc1 [Example 113, 1-[4-(azetidin-3-ylmethyl)phenyl]-3-[4-(trifluoromethyl)phenyl]urea]",Ki,[1],0.0042 µM
same,Ki,[2],8.7 nM
"COc1ccc(NC(=O)Nc2ccc(CC3CNC3)cc2)cc1 [Example 114, 1-[4-(azetidin-3-ylmethyl)phenyl]-3-(4-methoxyphenyl)urea]",Ki,[1],0.156 µM
same,Ki,[2],160 nM
O=C(Nc1ccc(CC2CNC2)cc1)Nc1cccc(Cl)c1 [Example 115],Ki,[1],0.0138 µM
same,Ki,[2],27.2 nM
"O=C(Nc1ccc(C=C2CNC2)cc1)Nc1ccc(C(F)(F)F)cc1 [Example 116, 1-[4-(azetidin-3-ylidenemethyl)phenyl]-3-[4-(trifluoromethyl)phenyl]urea]",Ki,[1],0.0016 µM
same,Ki,[2],3.7 nM
"COc1ccc(NC(=O)Nc2ccc(C=C3CNC3)cc2)cc1 [Example 117, 1-[4-(azetidin-3-ylidenemethyl)phenyl]-3-(4-methoxyphenyl)urea]",Ki,[1],0.0154 µM
same,Ki,[2],27.7 nM
"O=C(Nc1ccc(C=C2CNC2)cc1)Nc1cccc(Cl)c1 [Example 118, 1-[4-(azetidin-3-ylidenemethyl)phenyl]-3-(3-chlorophenyl)urea]",Ki,[1],0.0021 µM
same,Ki,[2],3.8 nM
"Cc1cc(C(=O)Nc2ccc(C[C@H]3NC[C@H]3F)cc2)nc(C(F)(F)F)n1 [Example 119, N-(4-(((2R,3R)-3-fluoroazetidin-2-yl)methyl)phenyl)-6-methyl-2-(trifluoromethyl)pyrimidine-4-carboxamide]",Ki,[1],1.18 µM
same,Ki,[2],336 nM
"COc1cc(C(=O)Nc2ccc(C[C@H]3NC[C@H]3F)cc2)ccn1 [Example 120, N-(4-(((2R,3R)-3-fluoroazetidin-2-yl)methyl)phenyl)-2-methoxyisonicotinamide]",Ki,[1],> 1.5 µM
same,Ki,[2],10.3 nM
"O=C(Nc1ccc(C[C@H]2NC[C@H]2F)cc1)c1ccnc(C(F)(F)F)c1 [Example 121, N-(4-(((2R,3R)-3-fluoroazetidin-2-yl)methyl)phenyl)-2-(trifluoromethyl)isonicotinamide]",Ki,[1],0.809 µM
same,Ki,[2],7 nM
"CCOc1ccc(C(=O)Nc2ccc(C[C@H]3NC[C@H]3F)cc2)cn1 [Example 122, 6-ethoxy-N-(4-(((2R,3R)-3-fluoroazetidin-2-yl)methyl)phenyl)nicotinamide]",Ki,[1],1.16 µM
same,Ki,[2],9.7 nM
"O=C(Nc1ccc(C[C@H]2NC[C@H]2F)cc1)c1cnc(C(F)(F)F)nc1 [Example 123, N-(4-(((2R,3R)-3-fluoroazetidin-2-yl)methyl)phenyl)-2-(trifluoromethyl)pyrimidine-5-carboxamide]",Ki,[1],0.61 µM
same,Ki,[2],23.2 nM
"O=C(Nc1ccc(C[C@H]2NC[C@H]2F)cc1)c1cnc(C2CC2)nc1 [Example 124, 2-cyclopropyl-N-(4-(((2R,3R)-3-fluoroazetidin-2-yl)methyl)phenyl)pyrimidine-5-carboxamide]",Ki,[1],> 1.5 µM
same,Ki,[2],55.4 nM
"CC(C)c1cc(C(=O)Nc2ccc(C[C@H]3NC[C@H]3F)cc2)[nH]n1 [Example 125, N-(4-(((2R,3R)-3-fluoroazetidin-2-yl)methyl)phenyl)-3-isopropyl-1H-pyrazole-5-carboxamide]",Ki,[1],0.466 µM
same,Ki,[2],16 nM
"Cc1cc(C(=O)Nc2ccc(C[C@@H]3NC[C@@H]3F)cc2)nc(C(F)(F)F)n1 [Example 126, N-(4-(((2S,3S)-3-fluoroazetidin-2-yl)methyl)phenyl)-6-methyl-2-(trifluoromethyl)pyrimidine-4-carboxamide]",Ki,[1],0.0224 µM
same,Ki,[2],22.9 nM
"COc1cc(C(=O)Nc2ccc(C[C@@H]3NC[C@@H]3F)cc2)ccn1 [Example 127, N-(4-(((2S,3S)-3-fluoroazetidin-2-yl)methyl)phenyl)-2-methoxyisonicotinamide]",Ki,[1],0.133 µM
same,Ki,[2],3.8 nM
"CCOc1ccc(C(=O)Nc2ccc(C[C@@H]3NC[C@@H]3F)cc2)cn1 [Example 128, 6-ethoxy-N-(4-(((2S,3S)-3-fluoroazetidin-2-yl)methyl)phenyl)nicotinamide]",Ki,[1],0.0204 µM
same,Ki,[2],2.3 nM

# Source: patent US10023559B2 (Hoffmann-La Roche Inc., priority 2014, dated 2018)
